Tested on: normal human epidermal keratinocytes
Assay: Protection of keratinocytes from ultraviolet induced cell death (apoptosis)
Type: cell-based
Settings: even at micromolar concentrations
Excerpt: This effect is independent from and in addition to, the skin barrier repair and hydrating effects taurine exerts on dermal cells.

NCCS(=O)(=O)O [taurine, Taurine]
protection from ultraviolet induced cell death (apoptosis): can protect
